Assay results taken from patent US9512139B2, “Conformationally constrained, fully synthetic macrocyclic compounds” (POLYPHOR AG, priority 2009, dated 2016).

Legend:
[1] = biological target: T1, 5-hydroxytryptamine 2B (5-HT2B) Receptor (Homo sapiens, UniProt P41595); assay: Ca2+ assay (FLIPR) for the GPCR 5-HT2B receptor, agonist and antagonist mode; type: cell-based
T1 construct: host or cells: Ca2+ optimized hematopoietic cell lines (rat)
Method: (§1) Ca^2+ Assays for the GPCRs Motilin Receptor, Prostaglandin F (FP) Receptor, 5-hydroxytryptamine 2B (5-HT2B) Receptor, and Purinoreceptor P2Y1
(§2) Assays were performed using on a FLIPR^TETRA fluorometric imaging plate reader (Molecular Devices) with ScreenWorks Version 2 (Molecular Devices) as device operating and data analysis software.
(§3) Dose dependent agonist and antagonist activities were determined. Percentage activation and percentage inhibition values were determined.
(§4) Percentage activation was determined upon initial addition of the sample compounds followed by 10 minutes incubation at 25° C. Following compound incubation, reference agonists were added at EC80 to determine percentage inhibition.
(§5) Reference agonists were purchased from reputable commercial vendors and prepared according to each ligand's specifications. All handling of ligands were done to ensure proper control throughout the experiments.
(§6) Example compounds were weighed on a Microbalance (Mettler MX5) and dissolved in 100% DMSO to a final concentration of 2.5 mM and subsequently diluted into the assay buffer.
(§7) The Assay buffer was a supplemented HBSS (Hank's Balanced Salt Solution). HBSS was supplemented with 20 mM HEPES (4-(2-hydroxyethyl)-piperazin-1-ethansulfonic acid) and 2.5 mM Probenecid (Sigma P8761).
(§8) GPCR assays were performed using Ca^2+ optimized hematopoietic cell lines (rat) with cultures never exceeding 90% confluency. […] After seeding, the assay plates were incubated for forty-five (45) minutes at room temperature. After room temperature incubation, the assay plates were incubated at 37° C. 5% CO2 for 24 hours prior to assaying.
(§9) All GPCR assays were performed using Fluo-8 Ca^2+ dye. Ca^2+ dye was prepared at 1× dye concentration in GPCR assay buffer. After 24 hours of incubation, cells were washed with GPCR assay buffer, and then Ca^2+-dye (100 μL/well) was added.
(§10) The plates were incubated for 90 minutes at 30° C. 5% CO2 prior to FLIPR assay.
(§11) Compound plates were prepared to add 50 μL/well during the agonist assay mode. During the FLIPR assay, 50 μL/well from the compound plate was diluted 3-fold into the existing 100 μL/well from the dye loading step. Therefore all compounds were prepared as 3× the final concentration desired in the assay.
(§12) After completion of the first single addition assay run, assay plate was removed from the FLIPR Tetra and placed at 25° C. for seven (7) minutes before antagonist assay.
(§13) Using the EC80 values determined during the agonist assay, all pre-incubated sample compound and reference antagonist (if applicable) wells were stimulated at the EC80 of the reference agonist. As reference ligands for the first three assays their obvious natural ligands motilin, prostaglandin F2α, and serotonin (5-HT, 5-Hydroxytryptamine) were used; and for the P2Y1 assay 2MeSATP (2-methyl-thio-adeno-sine 5′-triphosphate, i.e. (2R,3S,4R)-5-(6-amino-2-methylsulfanyl-purin-9-yl)-3,4-dihydroxy-tetrahydrofuran-2-yl]methyl (hydroxy-phosphonooxy-phosphoryl)hydrogen phosphate) was applied.
(§14) After the addition of the reference agonist fluorescence was monitored for 180 sec using FLIPR Tetra.
(§15) Data Analysis and Results:
(§16) From the FLIPR data, with negative control correction enabled, the maximum statistic for each well was exported and percentage activation relative to Emax control was calculated.

in vitro [2] = type: in vitro ADME, human; conditions: human, plasma; for Plasma Stability 240 min hum [% remain.]: 4 h
in vitro [3] = type: in vitro ADME, mouse; conditions: plasma; for Plasma Stability 240 min mouse [% remain.]: 4 h
Method: Example compounds were dissolved in DMSO/H2O 90:10 to a final concentration of 10 mM for plasma stability determination and metabolic stability determination.
Human plasma (3-5 donors, Blutspendedienst SRK, Basel) and CD-1 mouse plasma (mixed gender pool >50 animals, Innovative Research, CA, USA) are both sodium citrate stabilized. The assay is performed in triplicates at 10 μM compound concentration and 37° C. Samples are taken at 0, 15, 60, and 240 minutes and stopped by precipitation with 2 volumes of acetonitrile. The supernatant is collected, evaporated and reconstituted in a 5% acetonitrile solution to be analyzed by HPLC/MS/MS. The resulting peak area counts are expressed in percent of the 0 value and used to determine the endpoint stability in % and the half life in minutes. In order to monitor assay integrity the degradation of propantheline is assayed with every experimental set.

[4] = Metabolic stability assay, human microsomes; type: in vitro ADME; conditions: human, microsomes; for half-life at 10 µM: both sexes; for Metabolic Stability 60 min hum [% remain.]: 1 h
[5] = Metabolic stability assay, CD-1 mouse microsomes; type: in vitro ADME; conditions: microsomes; for Metabolic Stability 60 min mouse [% remain.]: 1 h; for half-life at 10 µM: both sexes
human Kv1.3 = biological target: T2, human Kv1.3 (Homo sapiens, UniProt P22001); assay: Thallium-sensitive fluorescence assay for the voltage gated ion channel Kv1.3 in Jurkat cells; type: cell-based; conditions: for inhibition at 10 µM: Jurkat, read-out: KV1,3 antagonist activity [% Inhibition at 10 μM]; for IC50: read-out: KV1,3 antagonist activity IC50
T2 construct: expressed in transfected cells; host or cells: Jurkat cells
T2 sequence (P22001 whole entry): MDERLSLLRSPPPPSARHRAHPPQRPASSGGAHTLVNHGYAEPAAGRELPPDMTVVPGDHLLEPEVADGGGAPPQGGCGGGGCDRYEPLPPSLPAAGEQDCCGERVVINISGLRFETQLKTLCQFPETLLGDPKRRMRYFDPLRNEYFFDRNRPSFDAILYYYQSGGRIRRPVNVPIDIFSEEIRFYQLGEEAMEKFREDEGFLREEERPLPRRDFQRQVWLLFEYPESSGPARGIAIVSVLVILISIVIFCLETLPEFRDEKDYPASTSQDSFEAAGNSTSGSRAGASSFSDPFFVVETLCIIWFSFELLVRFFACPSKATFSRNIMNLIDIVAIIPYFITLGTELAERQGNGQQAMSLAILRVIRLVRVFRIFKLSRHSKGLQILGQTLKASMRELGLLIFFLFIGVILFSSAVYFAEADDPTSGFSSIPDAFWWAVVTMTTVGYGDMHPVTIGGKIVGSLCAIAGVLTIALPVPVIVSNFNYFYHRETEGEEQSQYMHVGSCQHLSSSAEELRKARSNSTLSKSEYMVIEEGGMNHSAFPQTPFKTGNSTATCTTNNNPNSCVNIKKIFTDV
Method: 2. Assay for the Voltage Gated Ion Channel Kv1.3
Assays were performed and analyized with a FLIPR^TETRA device as specified above.
Compounds for inhibition of ion channel Kv1.3 were assayed in Jurkat cells recombinantly expressing human Kv1.3. For high throughput screening a thallium-sensitive, fluorescence-based assay was used. […] To identify blockers of this ion channel the cells were incubated with different concentrations of compounds 5 min before increasing the potassium and thallium concentration. The fluorescence signals by increasing potassium were then compared in the absence and presence of compounds. Dose response curves were established by adding different concentrations of compounds and analyzing the signal. As reference Kv1.3 blockers margatoxin and quinidine in Cl-free buffer were used as described in the literature.
The results of the Kv1.3 assay are depicted in Table 51 below.

Motilin Receptor = biological target: T3, Motilin Receptor (Homo sapiens, UniProt O43193); assay: Ca2+ assay (FLIPR) for the GPCR motilin receptor, agonist and antagonist mode; type: cell-based; conditions: antagonist mode
T3 construct: host or cells: Ca2+ optimized hematopoietic cell lines (rat)
T3 sequence (O43193 whole entry, species assumed): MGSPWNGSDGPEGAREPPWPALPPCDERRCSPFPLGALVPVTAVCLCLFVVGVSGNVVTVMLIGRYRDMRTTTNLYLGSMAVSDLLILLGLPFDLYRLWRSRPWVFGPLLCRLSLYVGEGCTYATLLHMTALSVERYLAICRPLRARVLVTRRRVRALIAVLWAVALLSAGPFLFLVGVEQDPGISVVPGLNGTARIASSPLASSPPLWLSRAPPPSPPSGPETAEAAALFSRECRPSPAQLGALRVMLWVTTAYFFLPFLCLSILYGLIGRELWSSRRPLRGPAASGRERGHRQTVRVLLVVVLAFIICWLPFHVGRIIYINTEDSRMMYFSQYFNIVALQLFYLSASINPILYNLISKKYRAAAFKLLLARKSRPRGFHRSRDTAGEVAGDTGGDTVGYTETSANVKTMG
Method: as §1, §2, §3, §4, §5, §6, §7, §8, §9, §10, §11, §12, §13, §14, §15, §16

[6] = biological target: T4, Prostaglandin F (FP) Receptor (Homo sapiens, UniProt P43088); assay: Ca2+ assay (FLIPR) for the GPCR prostaglandin F (FP) receptor, agonist and antagonist mode; type: cell-based; conditions: 10 μM
T4 construct: host or cells: Ca2+ optimized hematopoietic cell lines (rat)
T4 sequence (P43088 whole entry): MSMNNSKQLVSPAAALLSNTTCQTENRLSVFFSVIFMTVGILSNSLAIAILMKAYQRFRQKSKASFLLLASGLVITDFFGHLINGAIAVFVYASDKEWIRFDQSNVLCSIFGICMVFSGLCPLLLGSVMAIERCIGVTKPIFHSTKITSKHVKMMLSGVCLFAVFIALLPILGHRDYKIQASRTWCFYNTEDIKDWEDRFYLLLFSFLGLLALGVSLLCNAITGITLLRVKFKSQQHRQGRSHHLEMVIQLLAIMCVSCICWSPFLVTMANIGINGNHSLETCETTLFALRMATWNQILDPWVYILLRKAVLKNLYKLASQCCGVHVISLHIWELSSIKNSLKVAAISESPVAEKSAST
Summary of the method: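 Ca2+-optimized rat hematopoietic cells carrying the receptor were loaded with Fluo-8 in HBSS/20 mM HEPES/2.5 mM probenecid and read on FLIPR. Agonist mode: 10 min compound incubation at 25 °C, % activation relative to Emax. Antagonist mode: stimulation at EC80 of the reference agonist (prostaglandin F2α for FP, 2MeSATP for P2Y1), fluorescence monitored 180 s.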
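Throughout, for Plasma Stability 240 min mouse [% remain.]: sodium citrate stabilized mouse plasma, parent compound quantified by HPLC/MS/MS relative to its peak area at time zero, run in triplicate.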
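Throughout, for Plasma Stability T½ [min] mouse: sodium citrate stabilized mouse plasma, parent compound quantified by HPLC/MS/MS relative to its peak area at time zero, run in triplicate.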

T1 sequence (P41595 whole entry, species assumed): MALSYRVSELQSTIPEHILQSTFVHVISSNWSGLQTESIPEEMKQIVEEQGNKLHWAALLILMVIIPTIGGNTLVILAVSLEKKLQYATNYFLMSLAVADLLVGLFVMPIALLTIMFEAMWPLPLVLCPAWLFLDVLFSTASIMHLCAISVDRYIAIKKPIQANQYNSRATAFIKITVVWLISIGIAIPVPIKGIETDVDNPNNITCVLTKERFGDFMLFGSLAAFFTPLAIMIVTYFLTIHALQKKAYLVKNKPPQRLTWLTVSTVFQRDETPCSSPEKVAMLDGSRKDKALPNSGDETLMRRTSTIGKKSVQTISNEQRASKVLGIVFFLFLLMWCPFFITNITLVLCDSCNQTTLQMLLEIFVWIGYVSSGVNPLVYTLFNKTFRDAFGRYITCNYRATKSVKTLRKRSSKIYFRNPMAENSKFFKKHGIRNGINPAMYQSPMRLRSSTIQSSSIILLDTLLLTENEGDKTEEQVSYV

Row | Plasma Stability T½ [min] hum (in vitro [2]; 10 µM) [min] | Plasma Stability 240 min hum [% remain.] (in vitro [2]; 10 µM) | Plasma Stability T½ [min] mouse (in vitro [3]; both, CD-1, mouse, 10 µM) [min] | Plasma Stability 240 min mouse [% remain.] (in vitro [3]; both, CD-1, mouse, 10 µM) | half-life at 10 µM [4] [h] | Metabolic Stability 60 min hum [% remain.] ([4]; both, 10 µM) | Metabolic Stability 60 min mouse [% remain.] ([5]; both, CD-1, mouse, 10 µM) | inhibition at 10 µM (human Kv1.3) [%] | SMILES | EC50 [1] [µM] | Agonist activity [% activation at 12.5 μM] [1] [%] | Metabolic Stability T½ [min] mouse ([5]; both, CD-1, mouse, 10 µM) [min] | other results
1 | > 240 | 85 | > 240 | 100 | 0.367 | 2 | 55 | – | CN1CC(=O)N2C[C@@H](NC(=O)OC(C)(C)C)C[C@H]2COc2ccc(F)cc2C(=O)N(C)[C@H](C(=O)NCCc2c[nH]c3ccccc23)CCC1=O [Ex. 30, tert-butyl N-[(2S,11S,19aS)-15-fluoro-11-({[2-(1H-indol-3-yl)ethyl]amino}carbonyl)-7,12-dimethyl-5,8,13-trioxo-2,3,6,7,8,9,10,11,12,13,19,19a-dodecahydro-1H,5H-pyrrolo[2,1-c] [1,4,7,12]benzoxatriazacyclopentadecin-2-yl]carbamate] | 3.3 | 48 | > 60 | –
2 | – | – | – | – | – | – | – | 54 | CN1CC[C@H](NC(=O)Cc2cccc3ccccc23)C(=O)N2C[C@@H](NC(=O)Cc3ccc4ccccc4c3)C[C@H]2COc2cccc(c2)C1=O [Ex. 177, N-[(4S,6S,10S)-13-methyl-6-{[2-(2-naphthyl)acetyl]amino}-9,14-dioxo-2-oxa-8,13-diazatricyclo[13.3.1.0^4,8]nonadeca-1(19),15,17-trien-10-yl]-2-(1-naphthyl)acetamide] | – | – | – | IC50 (human Kv1.3): 3.5 µM
3 | > 240 | 85 | > 240 | 99 | 0.417 | 17 | 21 | 44 | CN1CCC(NC(=O)OCc2ccccc2)C(=O)N2CC(NC(=O)Cc3ccc4ccccc4c3)CC2COc2cccc(c2)C1=O [Ex. 168, benzyl N-[(4S,6S,10S)-13-methy1-6-{[2-(2-naphthyl)acetyl]amino}-9,14-dioxo-2-oxa-8,13-diazatricyclo [13.3.1.0^4,8]nonadeca-1(19),15,17-trien-10-yl]carbamate] | – | – | – | IC50 (human Kv1.3): 1.69 µM; half-life at 10 µM ([5]; CD-1, mouse): 0.433 h
4 | > 240 | 99 | > 240 | 100 | 0.283 | 7 | 33 | – | CN1CC(=O)N2C[C@@H](NC(=O)Cc3c[nH]c4ccccc34)C[C@H]2COc2ccc(F)cc2C(=O)N(C)[C@H](C(=O)NCCc2c[nH]c3ccccc23)CCC1=O [Ex. 12, (2S,11S,19aS)-15-fluoro-2-{[2-(1H-indol-3-yl)acetyl]amino}-N-[2-(1H-indol-3-yl)ethyl]-7,12-dimethyl-5,8,13-trioxo-2,3,6,7,8,9,10,11,12,13, 19,19a-dodecahydro-1H,5H-pyrrolo[2,1-c] [1,4,7,12]benzoxatriazacyclopentadecine-11-carboxamide] | 3.3 | 36 | – | IC50 (Motilin Receptor): 2.7 µM; inhibition at 10 µM (Motilin Receptor; at 10 μM): 95%; inhibition at 10 µM [6]: 44%; half-life at 10 µM ([5]; CD-1, mouse): 0.583 h
5 | – | – | – | – | – | – | – | 12 | CCCCC(=O)N[C@H]1C[C@H]2COc3cccc(c3)C(=O)N(C)CC[C@H](NC(=O)c3ccc4ccccc4c3)C(=O)N2C1 [Ex. 171, N-[(4S,6S,10S)-13-methyl-9,14-dioxo-6-(pentanoylamino)-2-oxa-8,13-diazatricyclo[13.3.1.0^4,8]nonadeca-1(19),15,17-trien-10-yl]-2-naphthamide] | – | – | – | –
6 | – | – | – | – | – | – | – | 20 | CCCCC(=O)N[C@H]1C[C@H]2COc3cccc(c3)C(=O)N(C)CC[C@H](NC(=O)OCc3ccccc3)C(=O)N2C1 [Ex. 166, benzyl N-[(4S,6S,10S)-13-methyl-9,14-dioxo-6-(pentanoylamino)-2-oxa-8,13-diazatricyclo[13.3.1.0^4,8]nonadeca-1(19),15,17-trien-10-yl]carbamate] | – | – | – | –
7 | – | – | – | – | – | – | – | – | CCCCC(=O)N[C@H]1C[C@H]2COc3cccc(c3)C(=O)N(C)CC[C@H](NC(=O)CCc3ccncc3)C(=O)N2C1 [Ex. 170] | – | – | – | KV1,3 antagonist activity [% Inhibition at 10 μM] (human Kv1.3; 10 μM): 10%; Plasma Stability T½ [min] hum (in vitro [2]): > 240 min; Plasma Stability 240 min hum [% remain.] (in vitro [2]): 92 % remain.; Plasma Stability T½ [min] mouse (in vitro [3]; mouse): > 240 min; Plasma Stability 240 min mouse [% remain.] (in vitro [3]; mouse): 100 % remain.; Metabolic Stability T½ [min] hum [4]: > 60 min; Metabolic Stability 60 min hum [% remain.] [4]: 60 % remain.; Metabolic Stability T½ [min] mouse ([5]; mouse): > 60 min; Metabolic Stability 60 min mouse [% remain.] ([5]; mouse): 86 % remain.

Row | SMILES | Plasma Stability T½ [min] hum (in vitro [2]; 10 µM) [min] | Plasma Stability 240 min hum [% remain.] (in vitro [2]; 10 µM) | Plasma Stability T½ [min] mouse (in vitro [3]; both, CD-1, mouse, 10 µM) [min] | Plasma Stability 240 min mouse [% remain.] (in vitro [3]; both, CD-1, mouse, 10 µM) | half-life at 10 µM [4] [h] | Metabolic Stability 60 min hum [% remain.] ([4]; both, 10 µM) | Metabolic Stability 60 min mouse [% remain.] ([5]; both, CD-1, mouse, 10 µM) | inhibition at 10 µM (human Kv1.3) [%] | EC50 [1] [µM] | Agonist activity [% activation at 12.5 μM] [1] [%] | Metabolic Stability T½ [min] mouse ([5]; both, CD-1, mouse, 10 µM) [min] | other results
8 | CN(C)CC(=O)N[C@H]1C[C@H]2COc3ccc(F)cc3C(=O)N(C)[C@H](C(=O)NCCc3c[nH]c4ccccc34)CCC(=O)N(C)CC(=O)N2C1 [Ex. 16, (2S,11S,19aS)-2-{[2-(dimethylamino)acetyl]amino}-15-fluoro-N-[2-(1H-indol-3-yl)ethyl]-7,12-dimethyl-5,8,13-trioxo-2,3,6,7,8,9,10,11, 12,13,19,19a-dodecahydro-1H,5H-pyrrolo [2,1-c] [1,4,7,12]benzoxatriazacyclopentadecine-11-carboxamide] | > 240 | 95 | > 240 | 97 | 0.633 | 31 | 79 | – | 6.6 | 45 | > 60 | –
9 | CC(=O)N[C@H]1C[C@H]2COc3ccc(F)cc3C(=O)N(C)[C@H](C(=O)NCCc3c[nH]c4ccccc34)CCC(=O)N(C)CC(=O)N2C1 [Ex. 9, (2S,11S,19aS)-2-(acetylamino)-15-fluoro-N-[2-(1H-indol-3-yl)ethyl]-7,12-dimethyl-5,8,13-trioxo-2,3,6,7,8,9,10,11,12,13,19,19a-dodecahydro-1H,5H-pyrrolo[2,1-c] [1,4,7,12]benzoxatriazacyclopentadecine-11-carboxamide] | > 240 | 99 | > 240 | 93 | 0.533 | 20 | 80 | – | 12 | 48 | > 60 | –
